# pEC50: −log10 of the molar value.
# Columns and labels:
# Type in all cases: cell-based
# [1] = target: T1, homomeric KV7.4 channel (KCNQ4) (Homo sapiens, UniProt P56696); assay: Automated patch-clamp (Qube) counter-screening assay against KV7.4 channel; settings: CHO-K1 cells expressing KV7.4; class by maximal shift in the Vhalf at 30 μM
# T1 construct: host or cells: CHO-K1
# Summary of the method: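 CHO-K1 cells stably expressing homomeric human KV7.4 were recorded on the Qube automated patch clamp. Ten concentrations (1:3 dilutions from 30 μM) were tested in quadruplicate. The mean Vhalf shift was fitted with a 4-parameter logistic to give EC50 and maximal Vhalf shift, and selectivity was based on the shift at 30 μM.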
# [2] = target: T2, heteromeric KV7.2/KV7.3 channels (KCNQ2, KCNQ3) (Homo sapiens, UniProt O43525+O43526); assay: Automated patch-clamp (Sophion Qube 384) potency assay against KV7.2/KV7.3 channels; settings: CHO-K1/Kv7.2/Kv7.3 cells; for pEC50: EC50 from concentration-response of shift in Vhalf, 10 concentrations up to 30 μM, read-out: Kv7.2/7.3 EC50; for Kv7.2/7.3 ΔV1/2: maximal shift in the Vhalf from the top of the curve
# T2 construct: expressed in transfected cells; host or cells: CHO-K1
# Summary of the method: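 Whole-cell automated patch clamp on CHO-K1 cells stably expressing human KV7.2/KV7.3, held at −80 mV; I-V steps −100 to +20 mV (1 s) with 0 mV tail pulses, Boltzmann-fitted activation curves. Ten concentrations (1:3 from 30 μM, quadruplicate) versus 0.3% DMSO control; EC50 and maximal shift from 4-parameter fits of Vhalf shift.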
# [3] = target: T3, heteromeric KV7.3/KV7.5 channel (KCNQ3, KCNQ5) (Homo sapiens, UniProt O43525+Q9NR82); assay: Automated patch-clamp counter-screening against KV7.3/KV7.5 channel; settings: HEK293 cells expressing Kv7.3/KV7.5; class by maximal shift in the Vhalf at 30 μM
# T3 construct: host or cells: HEK293
# Summary of the method: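 HEK293 cells with constitutive Kv7.3 and tetracycline-inducible Kv7.5 were recorded by automated patch clamp. Ten concentrations (1:3 series from 30 μM, quadruplicate) were tested; Vhalf shifts were fitted with a 4-parameter logistic to give EC50 and maximal Vhalf shift, with selectivity based on the shift at 30 μM.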
pEC50 [2],Kv7.2/7.3 ΔV1/2 [2],Structure (SMILES),Kv7.4 selectivity criteria [1],Kv7.3/7.5 selectivity criteria [3]
5.51,42.02 mV,Cc1ccc2c(c1)[C@H](NC(=O)NCc1ccnc(OCC(F)(F)F)c1)CC2 [Compound 126],B (Non-selective compounds showed Kv7.4 and/or Kv7.3/7.5 ΔV1/2 higher than 15 mV (letter B in table 3)),B (Non-selective compounds showed Kv7.4 and/or Kv7.3/7.5 ΔV1/2 higher than 15 mV (letter B in table 3))
5.80,30.45 mV,O=C(NCc1ccnc(OCC(F)(F)F)c1)N[C@@H]1CCc2cc(Cl)ccc21 [Compound 127],B (Non-selective compounds showed Kv7.4 and/or Kv7.3/7.5 ΔV1/2 higher than 15 mV (letter B in table 3)),B (Non-selective compounds showed Kv7.4 and/or Kv7.3/7.5 ΔV1/2 higher than 15 mV (letter B in table 3))
6.40,15.68 mV,COc1ccc2c(c1)[C@@H](NC(=O)NCc1ccnc(OCC(F)(F)F)c1)CC2 [Compound 128],A (Selective compounds showed Kv7.4 and/or Kv7.3/7.5 ΔV1/2 equal to or lower than 15 mV (letter A in table 3)),A (Selective compounds showed Kv7.4 and/or Kv7.3/7.5 ΔV1/2 equal to or lower than 15 mV (letter A in table 3))
6.03,14.07 mV,Cc1ccc2c(c1)CCC2NC(=O)NCc1ccnc(OCC(F)(F)F)c1 (stereo not shown) [Compound 129],A (Selective compounds showed Kv7.4 and/or Kv7.3/7.5 ΔV1/2 equal to or lower than 15 mV (letter A in table 3)),A (Selective compounds showed Kv7.4 and/or Kv7.3/7.5 ΔV1/2 equal to or lower than 15 mV (letter A in table 3))
5.79,40.52 mV,O=C(NCc1ccnc(OCC(F)(F)F)c1)N[C@@H]1CCOc2ccccc21 [Compound 130],B (Non-selective compounds showed Kv7.4 and/or Kv7.3/7.5 ΔV1/2 higher than 15 mV (letter B in table 3)),B (Non-selective compounds showed Kv7.4 and/or Kv7.3/7.5 ΔV1/2 higher than 15 mV (letter B in table 3))
6.12,22.47 mV,O=C(NCc1ccnc(OCC(F)(F)F)c1)Nc1cccc2c1OCC2 [Compound 131],B (Non-selective compounds showed Kv7.4 and/or Kv7.3/7.5 ΔV1/2 higher than 15 mV (letter B in table 3)),A (Selective compounds showed Kv7.4 and/or Kv7.3/7.5 ΔV1/2 equal to or lower than 15 mV (letter A in table 3))
5.49,19.47 mV,O=C(NCc1ccnc(OCC(F)(F)F)c1)N[C@H]1CCOc2ccccc21 [Compound 132],A (Selective compounds showed Kv7.4 and/or Kv7.3/7.5 ΔV1/2 equal to or lower than 15 mV (letter A in table 3)),A (Selective compounds showed Kv7.4 and/or Kv7.3/7.5 ΔV1/2 equal to or lower than 15 mV (letter A in table 3))
5.55,34.47 mV,O=C(NCc1ccnc(OCC(F)(F)F)c1)N[C@@H]1COc2ccccc21 [Compound 133],A (Selective compounds showed Kv7.4 and/or Kv7.3/7.5 ΔV1/2 equal to or lower than 15 mV (letter A in table 3)),B (Non-selective compounds showed Kv7.4 and/or Kv7.3/7.5 ΔV1/2 higher than 15 mV (letter B in table 3))
5.51,43.25 mV,COc1ccc2c(c1)[C@H](NC(=O)NCc1ccnc(OCC(F)(F)F)c1)CC2 [Compound 134],A (Selective compounds showed Kv7.4 and/or Kv7.3/7.5 ΔV1/2 equal to or lower than 15 mV (letter A in table 3)),B (Non-selective compounds showed Kv7.4 and/or Kv7.3/7.5 ΔV1/2 higher than 15 mV (letter B in table 3))
6.45,22.58 mV,O=C(NCc1ccnc(OCC(F)(F)F)c1)NC1CCc2c(F)cc(F)cc21 (stereo not shown) [Compound 135],A (Selective compounds showed Kv7.4 and/or Kv7.3/7.5 ΔV1/2 equal to or lower than 15 mV (letter A in table 3)),A (Selective compounds showed Kv7.4 and/or Kv7.3/7.5 ΔV1/2 equal to or lower than 15 mV (letter A in table 3))
6.25,16.11 mV,CC1Cc2cccc(NC(=O)NCc3ccnc(OCC(F)(F)F)c3)c2O1 (stereo not shown) [Compound 136],A (Selective compounds showed Kv7.4 and/or Kv7.3/7.5 ΔV1/2 equal to or lower than 15 mV (letter A in table 3)),A (Selective compounds showed Kv7.4 and/or Kv7.3/7.5 ΔV1/2 equal to or lower than 15 mV (letter A in table 3))
6.07,22.07 mV,O=C(NCc1ccnc(OCC(F)(F)F)c1)NC1CCc2ccccc21 (stereo not shown) [Compound 137],B (Non-selective compounds showed Kv7.4 and/or Kv7.3/7.5 ΔV1/2 higher than 15 mV (letter B in table 3)),B (Non-selective compounds showed Kv7.4 and/or Kv7.3/7.5 ΔV1/2 higher than 15 mV (letter B in table 3))
6.71,17.98 mV,O=C(NCc1ccnc(OCC(F)(F)F)c1)N[C@H]1CCCc2ccccc21 [Compound 138],A (Selective compounds showed Kv7.4 and/or Kv7.3/7.5 ΔV1/2 equal to or lower than 15 mV (letter A in table 3)),A (Selective compounds showed Kv7.4 and/or Kv7.3/7.5 ΔV1/2 equal to or lower than 15 mV (letter A in table 3))
5.65,34.89 mV,CC1CC(NC(=O)NCc2ccnc(OCC(F)(F)F)c2)c2ccccc21 (stereo not shown) [Compound 139],A (Selective compounds showed Kv7.4 and/or Kv7.3/7.5 ΔV1/2 equal to or lower than 15 mV (letter A in table 3)),A (Selective compounds showed Kv7.4 and/or Kv7.3/7.5 ΔV1/2 equal to or lower than 15 mV (letter A in table 3))
5.51,25.85 mV,O=C(NCc1ccnc(OCC(F)(F)F)c1)Nc1cccc2c1OCCC2 [Compound 140],A (Selective compounds showed Kv7.4 and/or Kv7.3/7.5 ΔV1/2 equal to or lower than 15 mV (letter A in table 3)),A (Selective compounds showed Kv7.4 and/or Kv7.3/7.5 ΔV1/2 equal to or lower than 15 mV (letter A in table 3))
6.55,17.59 mV,O=C(NCc1ccnc(OCC(F)(F)F)c1)NCC1CCCc2ccccc21 (stereo not shown) [Compound 141],A (Selective compounds showed Kv7.4 and/or Kv7.3/7.5 ΔV1/2 equal to or lower than 15 mV (letter A in table 3)),A (Selective compounds showed Kv7.4 and/or Kv7.3/7.5 ΔV1/2 equal to or lower than 15 mV (letter A in table 3))
6.18,16.4 mV,O=C(NCc1ccnc(OCC(F)(F)F)c1)N[C@H]1CCCOc2ccccc21 [Compound 142],A (Selective compounds showed Kv7.4 and/or Kv7.3/7.5 ΔV1/2 equal to or lower than 15 mV (letter A in table 3)),A (Selective compounds showed Kv7.4 and/or Kv7.3/7.5 ΔV1/2 equal to or lower than 15 mV (letter A in table 3))
5.40,22.37 mV,O=C(NCc1ccnc(OCC(F)(F)F)c1)N[C@H]1CCc2c(Cl)cccc21 [Compound 143],A (Selective compounds showed Kv7.4 and/or Kv7.3/7.5 ΔV1/2 equal to or lower than 15 mV (letter A in table 3)),B (Non-selective compounds showed Kv7.4 and/or Kv7.3/7.5 ΔV1/2 higher than 15 mV (letter B in table 3))
5.57,23.26 mV,O=C(NCc1ccnc(OCC(F)(F)F)c1)NC1CCc2sccc21 (stereo not shown) [Compound 144],A (Selective compounds showed Kv7.4 and/or Kv7.3/7.5 ΔV1/2 equal to or lower than 15 mV (letter A in table 3)),A (Selective compounds showed Kv7.4 and/or Kv7.3/7.5 ΔV1/2 equal to or lower than 15 mV (letter A in table 3))
5.79,23.71 mV,O=C(NCc1ccnc(OCC(F)(F)F)c1)NCC1Cc2ccccc2C1 [Compound 145],A (Selective compounds showed Kv7.4 and/or Kv7.3/7.5 ΔV1/2 equal to or lower than 15 mV (letter A in table 3)),A (Selective compounds showed Kv7.4 and/or Kv7.3/7.5 ΔV1/2 equal to or lower than 15 mV (letter A in table 3))
5.18,30.86 mV,O=C(NCc1ccnc(OCC(F)(F)F)c1)NC1(CO)Cc2ccccc2C1 [Compound 146],B (Non-selective compounds showed Kv7.4 and/or Kv7.3/7.5 ΔV1/2 higher than 15 mV (letter B in table 3)),B (Non-selective compounds showed Kv7.4 and/or Kv7.3/7.5 ΔV1/2 higher than 15 mV (letter B in table 3))
5.72,15.93 mV,O=C(NCc1ccnc(OCC(F)(F)F)c1)NC1COc2ccc(F)cc21 (stereo not shown) [Compound 147],A (Selective compounds showed Kv7.4 and/or Kv7.3/7.5 ΔV1/2 equal to or lower than 15 mV (letter A in table 3)),A (Selective compounds showed Kv7.4 and/or Kv7.3/7.5 ΔV1/2 equal to or lower than 15 mV (letter A in table 3))

# From US20260207563A1, “UREA COMPOUNDS AS ACTIVATORS OF POTASSIUM CHANNELS KV7.2/7.3 USEFUL IN THE TREATMENT OF CNS AND PNS DISORDERS” (ANGELINI PHARMA S.P.A., priority 2022, published 2026)
